Experimental data taken from patent US8546320B2, “Hsp9O-targeted anti-cancer chimeric peptide” (Kyoto University, priority 2008, dated 2013).
Where a SMILES comes first, the peptide text is derived from it.

What was measured:
[1] = system: cancer cells; assay: Cell viability assay, summary statements on cancer cells; type: cell-based; details: single mutation in TPR or Antp region of Antp-TPR
[2] = system: Caki-1; type: cell-based, human; details: Caki-1; for Anti-cancer activity (% relative to wild-type peptide) / Decrease in cell survival rate (% relative to wild-type peptide): wild-type peptide = 100%
Experimental: A total of 3×10^3 cells were inoculated per well on a 96 well plate and cultured in a medium containing 10% FBS for 24 hours, and incubated with 100 μl of a peptide having a gradual increase in concentration at 37° C. for 48 to 72 hours. The survival rate of the cells was measured by using WST-8 solution (Cell Count Reagent SF; Nacalai Tesque, Inc.).
(§1) Respective variant peptides were subjected to cell viability assay. Specifically, Caki-1 (American Type Culture Collection (Manassas, Va.) was inoculated in a total amount of 3×10^3 cells per well on a 96 well plate (Nunc™); the cells were cultured in a medium (DMEM (Tesque, Inc.) containing 10% FBS (fetal bovine serum; Biowest)) for 24 hours and incubated with 100 μl of a peptide having a gradual increase in concentration at 37° C. for 48 to 72 hours. The cell survival rate was measured by using WST-8 solution (Cell Count Reagent SF; Nacalai Tesque, Inc.) and compared with that of the wild-type Antp-TPR peptide.
as §1, with “medium” for “medium (DMEM (Tesque, Inc.)”, “FBS” for “FBS (fetal bovine serum; Biowest))”

Compound	effect compared with the wild-type protein (summary of mutations) [1]	killing effect compared with the wild-type peptide [2]	Anti-cancer activity (% relative to wild-type peptide) [2] [%]	Decrease in cell survival rate (% relative to wild-type peptide) [2] [%]
CC[C@H](C)[C@H](NC(=O)[C@H](CCCNC(=N)N)NC(=O)[C@H](C)NC(=O)[C@H](Cc1ccc(O)cc1)NC(=O)[C@H](C)NC(=O)[C@H](CCCCN)NC(=O)[C@H](CCCCN)NC(=O)[C@H](CCCCN)NC(=O)[C@H](Cc1c[nH]c2ccccc12)NC(=O)[C@H](CCCCN)NC(=O)[C@H](CCSC)NC(=O)[C@H](CCCNC(=N)N)NC(=O)[C@H](CCCNC(=N)N)NC(=O)[C@H](CC(N)=O)NC(=O)[C@H](CCC(N)=O)NC(=O)[C@H](Cc1ccccc1)NC(=O)[C@H](Cc1c[nH]c2ccccc12)NC(=O)[C@@H](NC(=O)[C@H](CCCNC(=N)N)NC(=O)[C@@H](NC(=O)[C@H](CCC(N)=O)NC(=O)[C@@H](N)CCCNC(=N)N)[C@@H](C)CC)[C@@H](C)CC)C(=O)NCC(=O)N[C@@H](CC(N)=O)C(=O)N[C@@H](CO)C(=O)N[C@@H](Cc1ccc(O)cc1)C(=O)N[C@@H](Cc1ccccc1)C(=O)N[C@@H](CCCCN)C(=O)O [Antp K4R-TPR] (H-RQIRIWFQNRRMKWKKKAYARIGNSYFK-OH; N-terminus and C-terminus assumed)	effect higher than the wild-type protein	stronger than that of the wild-type peptide	109.86	573.28
CC[C@H](C)[C@H](NC(=O)[C@H](CCCNC(=N)N)NC(=O)[C@H](C)NC(=O)[C@H](Cc1ccc(O)cc1)NC(=O)[C@H](C)NC(=O)[C@H](CCCCN)NC(=O)[C@H](CCCCN)NC(=O)[C@H](CCCCN)NC(=O)[C@H](Cc1c[nH]c2ccccc12)NC(=O)[C@H](CCCNC(=N)N)NC(=O)[C@H](CCSC)NC(=O)[C@H](CCCNC(=N)N)NC(=O)[C@H](CCCNC(=N)N)NC(=O)[C@H](CC(N)=O)NC(=O)[C@H](CCC(N)=O)NC(=O)[C@H](Cc1ccccc1)NC(=O)[C@H](Cc1c[nH]c2ccccc12)NC(=O)[C@@H](NC(=O)[C@H](CCCCN)NC(=O)[C@@H](NC(=O)[C@H](CCC(N)=O)NC(=O)[C@@H](N)CCCNC(=N)N)[C@@H](C)CC)[C@@H](C)CC)C(=O)NCC(=O)N[C@@H](CC(N)=O)C(=O)N[C@@H](CO)C(=O)N[C@@H](Cc1ccc(O)cc1)C(=O)N[C@@H](Cc1ccccc1)C(=O)N[C@@H](CCCCN)C(=O)O [Antp K13R-TPR] (H-RQIKIWFQNRRMRWKKKAYARIGNSYFK-OH; N-terminus and C-terminus assumed)	effect similar to that of the wild-type protein	stronger than that of the wild-type peptide	108.64	360.96
CC[C@H](C)[C@H](NC(=O)[C@H](CCCNC(=N)N)NC(=O)[C@H](C)NC(=O)[C@H](Cc1ccc(O)cc1)NC(=O)[C@H](C)NC(=O)[C@H](CCCCN)NC(=O)[C@H](CCCCN)NC(=O)[C@H](CCCNC(=N)N)NC(=O)[C@H](Cc1c[nH]c2ccccc12)NC(=O)[C@H](CCCCN)NC(=O)[C@H](CCSC)NC(=O)[C@H](CCCNC(=N)N)NC(=O)[C@H](CCCNC(=N)N)NC(=O)[C@H](CC(N)=O)NC(=O)[C@H](CCC(N)=O)NC(=O)[C@H](Cc1ccccc1)NC(=O)[C@H](Cc1c[nH]c2ccccc12)NC(=O)[C@@H](NC(=O)[C@H](CCCCN)NC(=O)[C@@H](NC(=O)[C@H](CCC(N)=O)NC(=O)[C@@H](N)CCCNC(=N)N)[C@@H](C)CC)[C@@H](C)CC)C(=O)NCC(=O)N[C@@H](CC(N)=O)C(=O)N[C@@H](CO)C(=O)N[C@@H](Cc1ccc(O)cc1)C(=O)N[C@@H](Cc1ccccc1)C(=O)N[C@@H](CCCCN)C(=O)O [Antp K15R-TPR] (H-RQIKIWFQNRRMKWRKKAYARIGNSYFK-OH; N-terminus and C-terminus assumed)	effect similar to that of the wild-type protein	stronger than that of the wild-type peptide	110.21	687.99
